We go through 1 substance from US8551997B2, “Structural-based inhibitors of the glutathione binding site in aldose reductase, methods of screening therefor and methods of use” (The Board of Regents of the University of Texas System, priority 2004, dated 2013).

Assay [1] has as its system rat VSMC cells. The experiment in a line: High glucose-induced TNF-a production in VSMC. The format is cell-based. The method, then:
Growth-arrested VSMC in 5.5 mM glucose (NG) were preincubated for 1 h without or with apocyanin (25 mM), D609 (100 mM), calphostin C (0.2 mM), N-acetyl cysteine (10 mM) and NF-kB inhibitor (18 mM) (FIG. 4A) and without or with sorbinil or tolrestat (10 mM each) (FIG. 4B) followed by the addition of glucose (19.5 mM) and incubation for the indicated times. AR antisense ablated VSMC were incubated with HG for the indicated times (FIG. 4C).
Growth-arrested VSMC in 5.5 mM glucose (NG) were preincubated for 1 h without or with apocyanin (25 mM), D609 (100 mM), calphostin C (0.2 mM), N-acetyl cysteine (10 mM) and NF-kB inhibitor (18 mM) respectively, followed by the addition of 19.5 mM glucose, after which the cells were incubated for 12 and 24 hrs.

Assay [2] relates to HT29 cells. The assay can be described thus: HT29 cell proliferation, MTT assay. It counts as cell-based. The settings on record: inhibitor alone. The procedure: HT29 cells were grown to confluence in McCoy's medium and harvested and plated 2,500 per well in a 96-well plate. Subconfluent cells were growth arrested in 0.1% FBS with or without AR inhibitor sorbinil or zopolrestat (20 μM). After 24 hours, EGF (5 ng/ml) or BFGF (10 ng/ml) was added to the medium and the cells were incubated for another 24 hours. Cells incubated with the AR inhibitors alone served as control. Cell viability was determined by an MTT assay.
On the technique in general: Tetrazolium dyes change colour on reduction, which living cells bring about.

Turning to “(S)-6-fluorospiro[chroman-4,4′-imidazolidine]-2,5′-dione [sorbinil]”, the “basal levels of TNF-a” value in assay [1] (media containing 5.5 mM glucose, mannitol, or 3-OMG) was “did not affect”. The “high glucose-induced TNF-a secretion” value in assay [1] (preincubated 1 h, then 19.5 mM glucose, apocyanin 25 mM, calphostin C 0.2 mM, N-acetyl cysteine 10 mM, sorbinil or tolrestat 10 mM each, or AR antisense ablated) is reported as “prevents”. The HT29 cells proliferation result in assay [2] is listed as “did not cause any effect”.
